Data as given in patent publication US11634388B2 (Chengdu Easton Biopharmaceuticals Co., Ltd., priority 2018, dated 2023).
Counter-ions that a name gives are not always drawn.

Tests used:
[1] = Determination of the dissolution rate (500 ml medium, 37° C., 50 r/min, HPLC); type: physicochemical
Protocol: (50 r/min). At 5 min, 10 min, 15 min, 20 min, 30 min, 45 min and 60 min, the concentrations of lenvatinib in the medium were determined by using high performance liquid chromatography.

[2] = Stability study of crystal form (XRPD before and after placement); type: physicochemical
[3] = Pharmacokinetic study in rats; type: in vivo; conditions: male, rat, plasma, po; SD rats, intragastric 10 mg/kg, suspension in oil, mean ± SD
Protocol: About 20 mg of the test drug was taken, added into 8 mL of vegetable oil and shaken well, to prepare a 2.5 mg/mL suspension.
6 SD rats, all males, 200-220 g, provided by Chengdu Dashuo Biotechnology Co., Ltd.
The rats were intragastrically administrated with 10 mg/kg of the drug. Before administration and at 5 min, 15 min, 30 min, 1 h, 2 h, 4 h, 6 h, 8 h, 24 h after administration, 0.2 mL of jugular blood was taken and placed in EDTA-K2 anticoagulant tube, centrifuged for 10 min at 3000 r/min. The plasma was separated and frozen in the refrigerator at −80° C. After all blood collections were completed, the blood drug concentration in each blood sample was analyzed and determined autonomously, and the parameters of the test drugs (Tmax, time to maximum plasma concentration; Cmax, maximum plasma concentration; AUClast) were calculated.

[4] = prior art WO2018164436; cited from earlier work
[5] = pH 1.0 medium (hydrochloric acid), 5 min
[6] = pH 6.8 medium (potassium dihydrogen phosphate buffer), 5 min

Structure (SMILES): COc1cc2nccc(Oc3ccc(NC(=O)NC4CC4)c(Cl)c3)c2cc1C(N)=O [Crystal form C, lenvatinib mesylate, reference compound]
- concentration of lenvatinib in the medium [1, 5]: 0.41 mg/mL
- concentration of lenvatinib in the medium ([1]; pH 1.0 medium, 10 min): 0.47 mg/mL
- concentration of lenvatinib in the medium ([1]; pH 1.0 medium, 15 min): 0.52 mg/mL
- concentration of lenvatinib in the medium ([1]; pH 1.0 medium, 20 min): 0.55 mg/mL
- concentration of lenvatinib in the medium ([1]; pH 1.0 medium, 30 min): 0.61 mg/mL
- concentration of lenvatinib in the medium ([1]; pH 1.0 medium, 45 min): 0.67 mg/mL
- concentration of lenvatinib in the medium ([1]; pH 1.0 medium, 60 min): 0.72 mg/mL
- concentration of lenvatinib in the medium [1, 6]: 0.0027 mg/mL
- concentration of lenvatinib in the medium ([1]; pH 6.8 medium, 10 min): 0.0030 mg/mL
- concentration of lenvatinib in the medium ([1]; pH 6.8 medium, 15 min): 0.0031 mg/mL
- concentration of lenvatinib in the medium ([1]; pH 6.8 medium, 20 min): 0.0032 mg/mL
- concentration of lenvatinib in the medium ([1]; pH 6.8 medium, 30 min): 0.0033 mg/mL
- concentration of lenvatinib in the medium ([1]; pH 6.8 medium, 45 min): 0.0034 mg/mL
- concentration of lenvatinib in the medium ([1]; pH 6.8 medium, 60 min): 0.0035 mg/mL

Structure (SMILES): COc1cc2nccc(Oc3ccc(NC(=O)NC4CC4)c(Cl)c3)c2cc1C(N)=O [Crystal form X, lenvatinib mesylate]
- concentration of lenvatinib in the medium [1, 5]: 1.48 mg/mL
- concentration of lenvatinib in the medium ([1]; pH 1.0 medium, 10 min): 1.54 mg/mL
- concentration of lenvatinib in the medium ([1]; pH 1.0 medium, 15 min): 1.54 mg/mL
- concentration of lenvatinib in the medium ([1]; pH 1.0 medium, 20 min): 1.52 mg/mL
- concentration of lenvatinib in the medium ([1]; pH 1.0 medium, 30 min): 1.56 mg/mL
- concentration of lenvatinib in the medium ([1]; pH 1.0 medium, 45 min): 1.57 mg/mL
- concentration of lenvatinib in the medium ([1]; pH 1.0 medium, 60 min): 1.60 mg/mL
- concentration of lenvatinib in the medium [1, 6]: 0.0036 mg/mL
- concentration of lenvatinib in the medium ([1]; pH 6.8 medium, 10 min): 0.0038 mg/mL
- concentration of lenvatinib in the medium ([1]; pH 6.8 medium, 15 min): 0.0039 mg/mL
- concentration of lenvatinib in the medium ([1]; pH 6.8 medium, 20 min): 0.0039 mg/mL
- concentration of lenvatinib in the medium ([1]; pH 6.8 medium, 30 min): 0.0039 mg/mL
- concentration of lenvatinib in the medium ([1]; pH 6.8 medium, 45 min): 0.0039 mg/mL
- concentration of lenvatinib in the medium ([1]; pH 6.8 medium, 60 min): 0.0040 mg/mL
- crystal transformation before and after the stability tests ([2]; all conditions of Table 4): did not undergo crystal transformation
- Result of crystal form (XRPD) ([2]; high humidity 25° C., RH 93.5%, 1 month): No obvious change
- Result of crystal form (XRPD) ([2]; high humidity 25° C., RH 93.5%, 7 days): No obvious change
- Result of crystal form (XRPD) ([2]; strong light illumination, 7 days): No obvious change
- Result of crystal form (XRPD) ([2]; temperature 2~8° C., 10 days): No obvious change
- AUC(0-t) [3]: 90900 ± 19600 ng·h/mL
- Cmax [3]: 9870 ng/mL
- Tmax [3]: 1.17 ± 0.41 h

Structure (SMILES): COc1cc2nccc(Oc3ccc(NC(=O)NC4CC4)c(Cl)c3)c2cc1C(N)=O [crystal form M, lenvatinib mesylate]
- solubility [4]: not evidently improved
